# Legend:
# Format in all cases: in vivo, mouse
# [1] = Tissue endocannabinoid measurement (2-AG, AEA); details: liver and ING WAT, DIO mice, 30 mg/kg
# Experimental: Approximately 200 mg of tissue per sample were used for endocannbabinoid extraction. To each frozen tissue sample, 10 μl of ice-cold 100 mM butylated hydroxytoluene (BHT; in methanol) and 0.5 ml of 100 nM AEA-d8 (in water) were added. Tissue sample solution with BHT were immediately homogenized using TissueLyser (QIAGEN, Germantown. MD) for 3 minutes at 30 Hz, followed by two consecutive 1.25 ml of ice-cold ethyl acetate:hexane (9:1) extraction. The pooled extracts were dried to complete dryness under nitrogen gas. Dried samples were redissolved in 80% acetonitrile and subjected to LC/MS analysis. 10 μl of sample was injected onto a Kinetex C18 2.1×100 mm, 2.6 μm column (Phenomenex, Torrance, CA). Mobile phase A is 0.2% acetic acid in water and mobile phase B is 0.1% formic acid in acetonitrile. The LC gradient was a 7-minute long method at a flow rate of 0.2 ml/minute consisting of an isocratic period from 0 to 1 minute at 75% B, followed by a gradient from 75 to 100% from 1 to 4 minutes, and 100 to 75% B from 4 to 7 minutes. The analyte peak areas were quantified using the Analyst software (SCIEX, Framingham MA).
# [2] = Plasma PUFA measurement (LC-MS/MS); details: for FADS1 activity 20:4n-6/20:3n-6 / FADS2 activity 18:3n-6/18:2n-6: DIO mice plasma ratio; for FADS1 activity 20:4n-6/20:3n-6 / FADS2 activity 18:3n-6/18:2n-6 / Adrenic acid 22:4 n-6 / Alpha-Linolenic acid 18:3 n-3 / Arachidonic acid 20:4 n-6 / Dihomo-gamma-Linolenic acid 20:3 n-6 / Docosahexaenoic acid 22:6 n-3 / Eicosapentaenoic acid 20:5 n-3 / Eicosatetraenoic acid 20:4 n-3 / Gamma-Linoleic acid 18:3 n-6 / Linoleic acid 18:2 n-6: mean ± SD; for Adrenic acid 22:4 n-6 / Alpha-Linolenic acid 18:3 n-3 / Arachidonic acid 20:4 n-6 / Dihomo-gamma-Linolenic acid 20:3 n-6 / Docosahexaenoic acid 22:6 n-3 / Eicosapentaenoic acid 20:5 n-3 / Eicosatetraenoic acid 20:4 n-3 / Gamma-Linoleic acid 18:3 n-6 / Linoleic acid 18:2 n-6: DIO mice plasma; for Adrenic acid AdA 22:4 n-6 / Arachidonic acid AA 20:4 n-6 / Decosahexaenoic acid DHA 22:6 n-3 / Dihomo-γ-Linolenic acid DGLA 20:3 n-6 / Eicosapentaenoic acid EPA 20:5 n-3 / Eicosatetraenoic acid ETA 20:4 n-3 / Linoleic acid LA 18:2 n-6 / α-Linolenic acid ALA 18:3 n-3 / γ-Linoleic acid GLA 18:3 n-6: plasma of Compound A-treated mice; for FADS1 activity AA/DGLA 20:4n-6/20:3n-6 / FADS2 activity GLA/LA 18:3n-6/18:2n-6: plasma ratio, Compound A-treated mice
# Experimental: Ten microliter of plasma or PUFA standards diluted in surrogate matrix (60 g/l bovine serum albumin in Dulbecco's phosphate-buffered saline [DPBS]) were mixed with 10 μl of ALA-d14 as the internal stand in a 96-well plate. 100 μl of 2N NaOH was added to the mixture for subsequent saponification at 65° C. for 1 hour. The mixture was then acidified with 50 μl of formic acid followed by two consecutive 500 μl hexane extractions. The organic extracts from the two extractions were combined and the solvent was evaporated under nitrogen gas. […] The PUFA peak areas were quantified by using the Analyst software (SCIEX, Framingham, MA).
# [3] = Liver histology assessment (H&E, Oil-red-O); details: WT DIO mice, 10 mg/kg, 24 days, compared to WT vehicle
compound,measurement,setting,value
"COc1ccn2c(=O)c(-c3cnn(CC(F)(F)C(F)(F)F)c3)c(C(F)(F)F)nc2c1 [Compound A, 8-methoxy-3-(1-(2,2,3,3,3-pentafluoropropyl)-1H-pyrazol-4-yl)-2-(trifluoromethyl)-4H-pyrido[1,2-a]pyrimidin-4-one]","endocannabinoid (2-AG, AEA) levels",[1],Decreased levels of endocannabinoids
same,FADS1 activity 20:4n-6/20:3n-6,"[2]; 10 mg kg^−1, 46 or 54 days",0.06 ± 0.01
same,FADS2 activity 18:3n-6/18:2n-6,"[2]; 10 mg kg^−1, 46 or 54 days",0.018 ± 0.002
same,FADS1 activity 20:4n-6/20:3n-6,"[2]; 30 mg kg^−1, 46 or 54 days",0.05 ± 0.01
same,FADS2 activity 18:3n-6/18:2n-6,"[2]; 30 mg kg^−1, 46 or 54 days",0.014 ± 0.003
same,Adrenic acid 22:4 n-6,"[2]; 10 mg kg^−1, 46 or 54 days",1.0 ± 0.1 µg/mL
same,Alpha-Linolenic acid 18:3 n-3,"[2]; 10 mg kg^−1, 46 or 54 days",0.9 ± 0.3 µg/mL
same,Arachidonic acid 20:4 n-6,"[2]; 10 mg kg^−1, 46 or 54 days",16.1 ± 3.2 µg/mL
same,Dihomo-gamma-Linolenic acid 20:3 n-6,"[2]; 10 mg kg^−1, 46 or 54 days",281.3 ± 34.6 µg/mL
same,Docosahexaenoic acid 22:6 n-3,"[2]; 10 mg kg^−1, 46 or 54 days",93.5 ± 11.8 µg/mL
same,Eicosapentaenoic acid 20:5 n-3,"[2]; 10 mg kg^−1, 46 or 54 days",0.3 ± 0.1 µg/mL
same,Eicosatetraenoic acid 20:4 n-3,"[2]; 10 mg kg^−1, 46 or 54 days",2.5 ± 0.5 µg/mL
same,Gamma-Linoleic acid 18:3 n-6,"[2]; 10 mg kg^−1, 46 or 54 days",3.4 ± 0.4 µg/mL
same,Linoleic acid 18:2 n-6,"[2]; 10 mg kg^−1, 46 or 54 days",198.5 ± 10.5 µg/mL
same,Adrenic acid 22:4 n-6,"[2]; 30 mg kg^−1, 46 or 54 days",0.8 ± 0.1 µg/mL
same,Alpha-Linolenic acid 18:3 n-3,"[2]; 30 mg kg^−1, 46 or 54 days",0.7 ± 0.2 µg/mL
same,Arachidonic acid 20:4 n-6,"[2]; 30 mg kg^−1, 46 or 54 days",12.5 ± 3.0 µg/mL
same,Dihomo-gamma-Linolenic acid 20:3 n-6,"[2]; 30 mg kg^−1, 46 or 54 days",242.3 ± 23.4 µg/mL
same,Docosahexaenoic acid 22:6 n-3,"[2]; 30 mg kg^−1, 46 or 54 days",78.2 ± 11.6 µg/mL
same,Eicosapentaenoic acid 20:5 n-3,"[2]; 30 mg kg^−1, 46 or 54 days",0.3 ± 0.1 µg/mL
same,Eicosatetraenoic acid 20:4 n-3,"[2]; 30 mg kg^−1, 46 or 54 days",1.9 ± 0.4 µg/mL
same,Gamma-Linoleic acid 18:3 n-6,"[2]; 30 mg kg^−1, 46 or 54 days",2.8 ± 0.5 µg/mL
same,Linoleic acid 18:2 n-6,"[2]; 30 mg kg^−1, 46 or 54 days",196.5 ± 24.6 µg/mL
same,Adrenic acid AdA 22:4 n-6,[2]; 10 mg/kg,1.0 ± 0.1 µg/mL
same,Arachidonic acid AA 20:4 n-6,[2]; 10 mg/kg,16.1 ± 3.2 µg/mL
same,Decosahexaenoic acid DHA 22:6 n-3,[2]; 10 mg/kg,93.5 ± 11.8 µg/mL
same,Dihomo-γ-Linolenic acid DGLA 20:3 n-6,[2]; 10 mg/kg,281.3 ± 34.6 µg/mL
same,Eicosapentaenoic acid EPA 20:5 n-3,[2]; 10 mg/kg,0.3 ± 0.1 µg/mL
same,Eicosatetraenoic acid ETA 20:4 n-3,[2]; 10 mg/kg,2.5 ± 0.5 µg/mL
same,Linoleic acid LA 18:2 n-6,[2]; 10 mg/kg,198.5 ± 10.5 µg/mL
same,α-Linolenic acid ALA 18:3 n-3,[2]; 10 mg/kg,0.9 ± 0.3 µg/mL
same,γ-Linoleic acid GLA 18:3 n-6,[2]; 10 mg/kg,3.4 ± 0.4 µg/mL
same,Adrenic acid AdA 22:4 n-6,[2]; 30 mg/kg,0.8 ± 0.1 µg/mL
same,Arachidonic acid AA 20:4 n-6,[2]; 30 mg/kg,12.5 ± 3.0 µg/mL
same,Decosahexaenoic acid DHA 22:6 n-3,[2]; 30 mg/kg,78.2 ± 11.6 µg/mL
same,Dihomo-γ-Linolenic acid DGLA 20:3 n-6,[2]; 30 mg/kg,242.3 ± 23.4 µg/mL
same,Eicosapentaenoic acid EPA 20:5 n-3,[2]; 30 mg/kg,0.3 ± 0.1 µg/mL
same,Eicosatetraenoic acid ETA 20:4 n-3,[2]; 30 mg/kg,1.9 ± 0.4 µg/mL
same,Linoleic acid LA 18:2 n-6,[2]; 30 mg/kg,196.5 ± 24.6 µg/mL
same,α-Linolenic acid ALA 18:3 n-3,[2]; 30 mg/kg,0.7 ± 0.2 µg/mL
same,γ-Linoleic acid GLA 18:3 n-6,[2]; 30 mg/kg,2.8 ± 0.5 µg/mL
same,FADS1 activity AA/DGLA 20:4n-6/20:3n-6,[2]; 10 mg/kg,0.06 ± 0.01
same,FADS2 activity GLA/LA 18:3n-6/18:2n-6,[2]; 10 mg/kg,0.018 ± 0.002
same,FADS1 activity AA/DGLA 20:4n-6/20:3n-6,[2]; 30 mg/kg,0.05 ± 0.01
same,FADS2 activity GLA/LA 18:3n-6/18:2n-6,[2]; 30 mg/kg,0.014 ± 0.003
same,decrease of AA/DHA ratio,"[2]; plasma, Compound A-treated mice (Table 6.1)",five-fold
same,liver lipid content (Oil-red-O staining),[3],reduced lipid content

# — patent US20260183297A1, “SELECTION OF PATIENTS FOR THE TREATMENT OF FADS1-MEDIATED DISEASES OR DISORDERS USING FADS-1 INHIBITORS” (AMGEN INC., priority 2022, published 2026)
